Drawing on patent publication US6500840B2, “Quinuclidine-substituted heteroaryl moieties for treatment of disease” (Pharmacia & Upjohn Company, priority 2000, dated 2002), this text covers Ki for 36 compounds.

A word on the Ki: it is a dissociation constant, usually derived from enzyme kinetics or from competition with a known ligand. Higher therefore signals a looser hold on the target.

Values joined by “and” are separate entries in the source; they are usually repeats but may differ in a detail not shown here. Equal entries are not always repeated. Structures can show the parent of a compound that is named as a salt.

In this experiment the target is α7 nAChR (Rattus norvegicus, UniProt Q05941). The experiment is described as follows: [3H]-MLA competition binding assay, rat brain membranes. As to conditions: Ki, inhibition of [3H]-MLA binding (3.0 to 4.0 nM), Sprague-Dawley rat whole brain minus cerebellum homogenate, 1 hour at 25° C.
α7 nAChR, sequence (Q05941 23-502): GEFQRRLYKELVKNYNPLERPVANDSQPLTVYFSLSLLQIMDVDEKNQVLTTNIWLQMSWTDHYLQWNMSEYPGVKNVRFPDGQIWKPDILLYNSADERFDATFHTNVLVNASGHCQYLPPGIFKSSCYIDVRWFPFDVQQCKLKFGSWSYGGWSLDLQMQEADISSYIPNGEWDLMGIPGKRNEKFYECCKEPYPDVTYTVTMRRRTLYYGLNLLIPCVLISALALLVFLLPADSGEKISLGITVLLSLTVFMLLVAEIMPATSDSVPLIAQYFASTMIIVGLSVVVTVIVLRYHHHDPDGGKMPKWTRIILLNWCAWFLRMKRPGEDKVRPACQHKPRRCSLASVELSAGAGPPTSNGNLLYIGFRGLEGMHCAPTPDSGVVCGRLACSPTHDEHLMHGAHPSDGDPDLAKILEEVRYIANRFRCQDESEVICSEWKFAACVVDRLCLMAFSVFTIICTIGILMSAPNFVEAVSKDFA
Description: Membrane Preparation. Male Sprague-Dawley rats (300-350 g) are sacrificed by decapitation and the brains (whole brain minus cerebellum) are dissected quickly, weighed and homogenized in 9 volumes/g wet weight of ice-cold 0.32 M sucrose using a rotating pestle on setting 50 (10 up and down strokes). The homogenate is centrifuged at 1,000×g for 10 minutes at 4° C. The supernatant is collected and centrifuged at 20,000×g for 20 minutes at 4° C. The resulting pellet is resuspended to a protein concentration of 1-8 mg/mL. Aliquots of 5 mL homogenate are frozen at −80° C. until needed for the assay.
Binding Assay. […] Filters are pre-soaked in 50 mm Tris HCl pH 7.0-0.05% polyethylenimine. The filters are rapidly washed two times with 5 mL aliquots of cold 0.9% saline and then counted for radioactivity by liquid
Data Analysis. […] Hill coefficients were obtained using non-linear regression (GraphPad Prism sigmoidal dose-response with variable slope).
`COc1ccccc1-c1cnc(C(=O)N[C@H]2CN3CCC2CC3)o1` [Example 84, N-[(3R)-1-azabicyclo[2.2.2]oct-3-yl]-5-(2-methoxyphenyl)-1,3-oxazole-2-carboxamide 4-methylbenzenesulfonate] had an inhibition constant Ki of 1100 to 1490 nM.
The result for `O=C(N[C@H]1CN2CCC1CC2)c1ncc(-c2ccc(F)cc2)o1` [Example 85, N-[(3R)-1-azabicyclo[2.2.2]oct-3-yl]-5-(4-fluorophenyl)-1,3-oxazole-2-carboxamide 4-methylbenzenesulfonate] reads 30 to 40 nM; that for `O=C(N[C@H]1CN2CCC1CC2)c1ncc(-c2ccccc2Cl)o1` [Example 86, N-[(3R)-1-azabicyclo[2.2.2]oct-3-yl]-5-(2-chlorophenyl)-1,3-oxazole-2-carboxamide 4-methylbenzenesulfonate], 30 to 40 nM; that for `N#Cc1cccc(-c2cnc(C(=O)N[C@H]3CN4CCC3CC4)o2)c1` [Example 87, N-[(3R)-1-azabicyclo[2.2.2]oct-3-yl]-5-(3-cyanophenyl)-1,3-oxazole-2-carboxamide 4-methylbenzenesulfonate], 130 to 150 nM.
On to `O=C(N[C@H]1CN2CCC1CC2)c1ncc(-c2ccc(Br)cc2)o1` [Example 88, N-[(3R)-1-azabicyclo[2.2.2]oct-3-yl]-5-(4-bromophenyl)-1,3-oxazole-2-carboxamide 4-methylbenzenesulfonate], for which the Ki lay in the range of 65 to 80 nM.
Turning to `Cc1nc(C(=O)N[C@H]2CN3CCC2CC3)sc1-c1ccccc1` [Example 89, N-[(3R)-1-Azabicyclo[2.2.2]oct-3-yl]-4-methyl-5-phenyl-1,3-thiazole-2-carboxamide 4-Methylbenzenesulfonate], the Ki lay within 310 to 400 nM.
The result for `O=C(N[C@H]1CN2CCC1CC2)c1ncc(-c2ccccc2)s1` [Example 90, N-[(3R)-1-azabicyclo[2.2.2]oct-3-yl]-5-phenyl-1,3-thiazole-2-carboxamide] reads 80 to 150 nM; that for `O=C(N[C@H]1CN2CCC1CC2)c1ncc(-c2cccc([N+](=O)[O-])c2)s1` [Example 92, N-[(3R)-1-azabicyclo[2.2.2]oct-3-yl]-5-(3-nitrophenyl)-1,3-thiazole-2-carboxamide 4-medhylbenzenesulfonate], 190 to 375 nM; that for `COc1cccc(-c2cnc(C(=O)N[C@H]3CN4CCC3CC4)s2)c1` [Example 93, N-[(3R)-1-azabicyclo[2.2.2]oct-3-yl]-5-(3-methoxyphenyl)-1,3-thiazole-2-carboxamide 4-methylbenzenesulfonate], 40 to 45 nM.
The value for `O=C(N[C@H]1CN2CCC1CC2)c1ncc(-c2ccccc2Cl)s1` [Example 94, N-[(3R)-1-azabicyclo[2.2.2]oct-3-yl]-5-(2-chlorophenyl)-1,3-thiazole-2-carboxamide 4-methylbenzenesulfonate] was 125 nM.
The result for `O=C(N[C@H]1CN2CCC1CC2)c1ncc(-c2ccc(F)cc2)s1` [Example 95, N-[(3R)-1-azabicyclo[2.2.2]oct-3-yl]-5-(4-fluorophenyl)-1,3-thiazole-2-carboxamide 4-methylbenzenesulfonate] reads 1080 nM; that for `COc1ccccc1-c1cnc(C(=O)N[C@H]2CN3CCC2CC3)s1` [Example 96, N-[(3R)-1-azabicyclo[2.2.2]oct-3-yl]-5-(2-methoxyphenyl)-1,3-thiazole-2-carboxamide 4-methylbenzenesulfonate], 95 to 110 nM; that for `Cc1cnc(C(=O)N[C@H]2CN3CCC2CC3)s1` [Example 98, N-[(3R)-1-azabicyclo[2.2.2]oct-3-yl]-5-methyl-1,3-thiazole-2-carboxamide 4-methylbenzenesulfonate], 50 to 80 nM.
As to `O=C(N[C@H]1CN2CCC1CC2)c1ncc(-c2cccc(Cl)c2)s1` [Example 99, N-[(3R)-1-azabicyclo[2.2.2]oct-3-yl]-5-(3-chlorophenyl)-1,3-thiazole-2-carboxamide 4-methylbenzenesulfonate], the Ki fell in the range of 310 to 325 nM.
Regarding `O=C(N[C@H]1CN2CCC1CC2)c1ccc(-c2ccccc2)o1` [Example 103, N-[(3R)-1-Azabicyclo[2.2.2]oct-3-yl]-5-phenyl-furan-2-carboxamide 4-Methylbenzenesulfonate], the Ki was 17 to 50 nM.
The value for `O=C(N[C@H]1CN2CCC1CC2)c1ccc(-c2ccccc2Cl)o1` [Example 104, N-((3R)-1-azabicyclo[2.2.2]oct-3-yl]-5-(2-chlorophenyl)-furan-2-carboxamide toluene sulfonate] was 20 to 130 nM and 75 nM; that for `O=C(N[C@H]1CN2CCC1CC2)c1ccc(-c2cccc(Cl)c2)o1` [Example 105, N-[(3R)-1-azabicyclo[2.2.2]oct-3-yl]-5-(3-chlorophenyl)-furan-2-carboxamide toluene sulfonate] was 90 nM.
The value for `O=C(N[C@H]1CN2CCC1CC2)c1ccc(-c2ccc(Cl)cc2)o1` [Example 106, N-[(3R)-1-azabicyclo[2.2.2]oct-3-yl]-5-(4-chlorophenyl)-furan-2-carboxamide fumarate] was 15 to 190 nM and 22 to 110 nM; that for `O=C(N[C@H]1CN2CCC1CC2)c1ccc(-c2ccccc2C(F)(F)F)o1` [Example 108, N-[(3R)-1-azabicyclo[2.2.2]oct-3-yl]-5-[2-(trifluoromethyl)-phenyl]-furan-2-carboxamide fumarate] was 415 to 560 nM.
On to `O=C(N[C@H]1CN2CCC1CC2)c1ccc(-c2cccc(C(F)(F)F)c2)o1` [Example 109, N-[(3R)-1-azabicyclo[2.2.2]oct-3-yl]-5-[3-(trifluoromethyl)-phenyl]-furan-2-carboxamide fumarate], for which the Ki lay in the range of 1.5 to 6 nM.
The value for `O=C(N[C@H]1CN2CCC1CC2)c1ccc(-c2ccccc2[N+](=O)[O-])o1` [Example 110, N-[(3R)-1-azabicyclo[2.2.2]oct-3-yl]-5-(2-nitrophenyl)-furan-2-carboxamide 4-methylbenzenesulfonate] was 4 to 190 nM; that for `O=C(N[C@H]1CN2CCC1CC2)c1ccc(-c2ccc([N+](=O)[O-])cc2)o1` [Example 112, N-[(3R)-1-azabicyclo[2.2.2]oct-3-yl]-5-(4-nitrophenyl)-furan-2-carboxamide 4-methylbenzenesulfonate] was 5 to 24 nM.
The result for `O=C(N[C@H]1CN2CCC1CC2)c1ccc(-c2ccccc2F)o1` [Example 113, N-[(3R)-1-azabicyclo[2.2.2]oct-3-yl]-5-(2-fluorophenyl)-furan-2-carboxamide 4-methylbenzenesulfonate] reads 90 to 125 nM; that for `O=C(N[C@H]1CN2CCC1CC2)c1ccc(-c2cccc(F)c2)o1` [Example 114, N-[(3R)-1-azabicyclo[2.2.2]oct-3-yl]-5-(3-fluorophenyl)-furan-2-carboxamide 4-methylbenzenesulfonate], 135 nM; that for `O=C(N[C@H]1CN2CCC1CC2)c1ccc(-c2cc(F)ccc2F)o1` [Example 117, N-[(3R)-1-azabicyclo[2.2.2]oct-3-yl]-5-(2,5-difluorophenyl)-furan-2-carboxamide hydrochloride], 1860 nM.
The result for `COc1ccccc1-c1ccc(C(=O)N[C@H]2CN3CCC2CC3)o1` [Example 118, N-[(3R)-1-azabicyclo[2.2.2]oct-3-yl]-5-(2-methoxyphenyl)-furan-2-carboxamide 4-methylbenzenesulfonate] reads 45 to 69 nM; that for `COc1cccc(-c2ccc(C(=O)N[C@H]3CN4CCC3CC4)o2)c1` [Example 119, N-[(3R)-1-azabicyclo[2.2.2]oct-3-yl]-5-(3-methoxyphenyl)-furan-2-carboxamide 4-methylbenzenesulfonate], 415 to 560 nM.
On to `O=C(N[C@H]1CN2CCC1CC2)c1ccc(-c2cccc(OC(F)(F)F)c2)o1` [Example 120, N-[(3R)-1-azabicyclo[2.2.2]oct-3-yl]-5-[3-(trifluoromethoxy)phenyl]-furan-2-carboxamide 4-methylbenzenesulfonate], for which the inhibitory constant (Ki) was found to be 1050 nM.
The value for `Cc1cc(C(=O)N[C@H]2CN3CCC2CC3)oc1C` [Example 128, N-[(3R)-1-azabicyclo[2.2.2]oct-3-yl]-4,5-dimethyl-furan-2-carboxamide hydrochloride] was 6 to 7 nM.
Consider `Cc1ccc(-c2ccc(C(=O)N[C@H]3CN4CCC3CC4)o2)c([N+](=O)[O-])c1` [Example 130, N-[(3R)-1-azabicyclo[2.2.2]oct-3-yl]-5-(4-methyl-2-nitrophenyl)-furan-2-carboxamide hydrochloride], for which the Ki is 420 to 565 nM and 330 to 410 nM.
Compound `O=C(N[C@H]1CN2CCC1CC2)c1ccc(-c2ccc(F)c(F)c2)o1` [Example 132, N-[(3R)-1-azabicyclo[2.2.2]oct-3-yl]-5-(3,4-difluorophenyl)-furan-2-carboxamide hydrochloride] yielded a Ki of 875 to 2080 nM.
For `O=C(N[C@H]1CN2CCC1CC2)c1ccc(-c2cc(F)cc(F)c2)o1` [Example 133, N-[(3R)-1-azabicyclo[2.2.2]oct-3-yl]-5-(3,5-difluorophenyl)-furan-2-carboxamide hydrochloride], the inhibition constant (Ki) was 30 to 70 nM.
The result for `COc1ccc(-c2ccc(C(=O)N[C@H]3CN4CCC3CC4)o2)cc1` [Example 134, N-[(3R)-1-azabicyclo[2.2.2]oct-3-yl]-5-(4-methoxy-phenyl)-furan-2-carboxamide hydrochloride] reads 60 to 100 nM.
The value for `Cc1ccccc1-c1ccc(C(=O)N[C@H]2CN3CCC2CC3)o1` [Example 135, N-[(3R)-1-azabicyclo[2.2.2]oct-3-yl]-5-(2-methylphenyl)-furan-2-carboxamide 4-methylbenzenesulfonate] was 16 to 45 nM; that for `Cc1cccc(-c2ccc(C(=O)N[C@H]3CN4CCC3CC4)o2)c1` [Example 136, N-[(3R)-1-azabicyclo[2.2.2]oct-3-yl]-5-(3-methylphenyl)-furan-2-carboxamide 4-methylbenzenesulfonate] was 15 to 20 nM.
The result for `O=C(N[C@H]1CN2CCC1CC2)c1ccc(-c2ccccc2OC(F)(F)F)o1` [Example 138, N-[(3R)-1-azabicyclo[2.2.2]oct-3-yl]-5-[2-(trifluoromethoxy)phenyl]-furan-2-carboxamide 4-methylbenzenesulfonate] reads 525 to 590 nM.
